Laboratory results as given in patent US20240159675A1, “METHODS AND DEVICES FOR RATIOMETRIC CHARACTERIZATION OF FLUORESCENT PARTICLES” (NANOTEMPER TECHNOLOGIES GMBH, priority 2021, published 2024).
Like-named read-outs stand apart in the source and are kept apart here. Blank lines part the entries; values can stand above or below the compound they belong to. {Cy5} = Cy5 dye label

Key:
streptavidin = streptavidin (Streptomyces avidinii, UniProt P22629); test: Emission spectrum of fluorescently labeled streptavidin alone and in complex with biotin; type: binding
Description: (§1) Shifts of 3 nm and of approx. 500 pm correspond to relative changes in the fluorescence ratio of about 37.3% and 5.5%, respectively (Table 3).

[1] = molecular target: fluorescently labeled streptavidin (Streptomyces avidinii, UniProt P22629); test: Ratiometric dual-emission dose-response, biotin dilution series (Example 4); type: binding; details: 20 nM streptavidin
Method: A 12-point 1-to-1 dilution series of unlabeled biotin was prepared. […] The highest concentration of biotin corresponded to 500 nM.
As evident from the dose-response curve shown in FIG. 17, the ratio changed from a value of approx. 2.2 to approx. 1.2 when streptavidin is unbound or in complex with biotin, respectively. Since the target concentration is much higher than the Kd, a characteristic kink at the stoichiometry point at a concentration of 80 nM biotin can be observed.

lysozyme [2] = molecular target: T1, lysozyme (Gallus gallus, UniProt P00698); test: Ratio 350 nm/330 nm of intrinsic tryptophan fluorescence during thermal melting ramp 35° C. to 95° C.; type: binding; details: increasing / very high concentrations of NAG3, unlabeled lysozyme
Method: To monitor the temperature of denaturation, each sample is heated from 35° C. to 95° C. […] This shift cannot be used to extract the dissociation constant of this interaction.
The alterations in the fluorescence spectrum are independent of the nature of the fluorescent label, i.e. they equally appear in intrinsic as well as extrinsic fluorescent labels. However, the extend of the alterations in the fluorescence spectrum may be increased for certain classes of labels.

lysozyme [3] = molecular target: T1, lysozyme; test: Emission spectrum of fluorescently labeled lysozyme alone and in complex with NAG3; type: binding; details: corresponding to the spectral shift (Table 3)
Description: as §1

[4] = system: complementary 11-mer DNA strand labeled with Cy5; test: Kd-over-time curve of DNA hybridization, dual-emission configuration with IR laser (Example 10); type: binding
Method: For the DNA hybridization, a 16-point 1-to-1 dilution series of the unlabeled 11-mer (sequence: 5′ CCT GAA GTC C 3′) was prepared. The complementary 11-mer (sequence: 5′ GGA CTT CAG G 3′) was fluorescently labeled at its 5′ end with Cy5 and added in equal amounts to the dilution series to obtain a final sample concentration of 10 nM. The highest concentration of the unlabeled 11-mer corresponded to 100 μM.
(§2) At the timepoint 0 s, an IR laser was switched on. The response of the fluorescence intensity was simultaneously measured for 6 s (aptamer), respectively 21 s (DNA hybridization).
(§3) From above it is evident that information on the binding interaction (e.g. Kd) can be derived from any “vertical” slice in time along the ratiometric traces, when the method of the present invention is used in combination with fast IR laser heating. A new type of curve, which can be described as Kd-over-time curve can be generated. From this curve not only information on the thermodynamics but also on the binding kinetics of the interaction can be determined. In particular, if the equilibration kinetics of an interaction is slower than the heating with the IR laser, the Kd-over-time curve will show a characteristic lag.
(§4) The Kd-over-time curves provided in FIG. 23 reveal three different interactions with different dissociation constants Kd and binding kinetics.

[5] = Fluorescence ratio of labeled protein over time at room temperature (Example 9); type: physicochemical; details: 20 nM labeled protein, 0, 3, 8 and 19 minutes
Method: The labeled protein was then diluted to a concentration of 20 nM and loaded into a polymer-coated borosilicate glass capillary (Monolith NT.115 Premium Capillaries, MO-K025, NanoTemper Technologies).
The sample was excited at a wavelength of 591 nm. […] Measurements were performed directly after dilution (t=0 min) and again after 3, 8 and 19 minutes inside the capillary.

Cy5-labeled DNA aptamer [6] = test: Ratiometric measurement with a standard fluorescence microplate-reader, AMP dilution series (Example 1); type: binding; details: 20 nM Cy5-labeled DNA aptamer, read-out: dissociation constant (Kd), midpoint of dose-response curve
Method: (§5) A 14-point 1-to-1 dilution series of unlabeled AMP was prepared. The DNA aptamer was fluorescently labeled with Cy5 and added in equal amounts to the AMP dilution series to obtain a final sample concentration of 20 nM. The highest concentration of AMP corresponded to 5 mM. For measurements with a standard fluorescence microplate-reader (CLARIOstar, BMG Labtech) 95 […] of the sample were loaded into a micro-well plate.
(§6) For the microplate-reader measurements, the sample was excited at a wavelength of 590 nm and the emission was first detected at a wavelength of 628 nm to 652 nm. Then, the sample was again excited at the 590 nm wavelength and the emission was detected at a wavelength of 665 nm to 725 nm. Three subsequent fluorescence intensity measurements of the dilution series were run.
In order to characterize the interaction with the fluorescence microplate-reader, the ratio between the fluorescence intensities per well was calculated manually by using a commercially available calculation tool (Microsoft Excel). The fluorescence detected at the higher wavelength was divided by the fluorescence detected at the lower wavelength. The sigmoidal dose-response curve provided in FIG. 10A starts at a ratio value of approx. 0.95 and ends at a ratio value of approx. 0.90. The midpoint, which corresponds to the dissociation constant (Kd) of the interaction, lies at approx. 20-30 μM. […]

Cy5-labeled DNA aptamer [7] = test: Ratiometric measurement with the dual-emission configuration, AMP dilution series (Example 1); type: binding; details: 20 nM Cy5-labeled DNA aptamer, read-out: Kd of the interaction
Method: as §5, §6
When using lower sample concentrations, i.e. 250 pM, for the ratiometric measurement according to the present invention, the signal-to-noise ratio (S/N) is still very good (19.8) and a Kd of the interaction can be easily determined (FIG. 10C).

[8] = molecular target: Cy5-labeled DNA aptamer for adenosine; test: Kd-over-time curve, dual-emission configuration with IR laser, AMP (Example 10); type: binding; details: FIG. 23A
Method: For the aptamer, a 12-point 1-to-1 dilution series of unlabeled AMP was prepared. The DNA aptamer was fluorescently labeled with Cy5 and added in equal amounts to the AMP dilution series to obtain a final sample concentration of 20 nM. The highest concentration of AMP corresponded to 2 mM.
as §2, §3, §4

T1 sequence (P00698 19-147): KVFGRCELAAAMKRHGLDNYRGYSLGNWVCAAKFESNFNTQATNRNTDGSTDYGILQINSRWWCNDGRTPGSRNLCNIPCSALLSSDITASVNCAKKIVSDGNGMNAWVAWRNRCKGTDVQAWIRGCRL

Compound: O=C(O)CCCC[C@@H]1SC[C@@H]2NC(=O)N[C@@H]21 [biotin]
relative change in the fluorescence ratio (streptavidin; corresponding to the spectral shift (Table 3)): about 37.3% | shift of the maximum emission peak wavelength (streptavidin; streptavidin 200 nM, biotin 2 μM, excitation 605 nm): 3 nm | stoichiometry point (kink in dose-response curve) ([1]; concentration of biotin): 80 nM | ratio 670 nm/650 nm of streptavidin in complex with biotin ([1]; unbound approx. 2.2): approx. 1.2

Compound: CC(=O)N[C@H]1[C@H](O[C@H]2[C@H](O)[C@@H](NC(C)=O)C(O)O[C@@H]2CO)O[C@H](CO)[C@@H](O[C@@H]2O[C@H](CO)[C@@H](O)[C@H](O)[C@H]2NC(C)=O)[C@@H]1O (stereo partly drawn) [NAG3, Tri-N-acetyl-D-glucosamine]
effect on thermal denaturation of lysozyme (lysozyme [2]): thermal stabilization | relative change in the fluorescence ratio (lysozyme [3]): ~5.5%

Compound: 11-mer complementary DNA strands: unlabeled 11-mer (5′ CCT GAA GTC C 3′) titrated against complementary 11-mer (5′ GGA CTT CAG G 3′) labeled at 5′ end with Cy5 (chain 1 CCTGAAGTCC; chain 2 GGACTTCAGG; chain 1: DNA, backbone not given here; chain 2: DNA, 5' {Cy5}, backbone not given here)
koff ([4]; measured at 22° C., FIG. 23C): smaller than 0.01 s^−1 | Kd ([4]; measured at 22° C., FIG. 23C, read-out: Kd): ~0.005 µM | koff ([4]; measured at 32° C., estimated, FIG. 23B): approx. 1 s^−1 | Kd ([4]; sample temperature 22° C., FIG. 24B, read-out: Kd value at start of IR laser on-time): ~0.01 µM | Kd ([4]; temperature after IR laser heating approx. 32° C., FIG. 24B, read-out: Kd value after IR laser heating): ~0.5 µM

Compound: Mitogen-activated protein kinase 14 (p38-α): Mitogen-activated protein kinase 14, fluorescently labeled with Protein Labeling Kit RED-NHS 2nd Generation
stability at room temperature (fluorescence ratio over about 20 minutes) [5]: not stable at room temperature but gradually denatures

Kd (Cy5-labeled DNA aptamer [6]): 20 to 30 µM | Kd (Cy5-labeled DNA aptamer [7]): 39.3 µM | Kd ([8]; Kd-over-time curve): ~30 µM | koff ([8]; estimated from Kd-over-time curve): greater than 10 s^−1
Compound: Nc1ncnc2c1ncn2[C@@H]1O[C@H](COP(=O)(O)O)[C@@H](O)[C@H]1O [AMP, adenosine monophosphate]
